Biological target: T1, NIK (Homo sapiens, UniProt Q99558)
T1 construct: Both assays utilize a truncated form of NIK containing only the catalytic domain; made in house; host or cells: baculovirus expression system (insect cells implied)
Assay: homogenous time resolved fluorescence (HTRF) assay for NIK Ki measurement
Assay type: biochemical
Conditions: truncated NIK (catalytic domain only), autophosphorylation; 10 nM enzyme; 20, 100, 200 or 500 μM ATP; room temperature, 2 hours; read-out: Ki activity in the homogenous time resolved fluorescence (HTRF) assay for NIK

T1 sequence (Q99558 400-655 limits assumed): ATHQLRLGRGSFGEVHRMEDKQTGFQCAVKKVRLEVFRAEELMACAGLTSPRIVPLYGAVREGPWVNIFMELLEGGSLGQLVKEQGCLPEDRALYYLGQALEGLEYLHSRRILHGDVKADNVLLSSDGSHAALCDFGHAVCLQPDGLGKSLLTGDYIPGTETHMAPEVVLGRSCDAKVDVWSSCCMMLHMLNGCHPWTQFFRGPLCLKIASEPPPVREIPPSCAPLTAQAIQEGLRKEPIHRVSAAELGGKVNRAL

Ki | Compound
< 1 µM | Nc1ncc(Cl)c(-c2cn(CC3CCCN3)c3ccc(C#CC4(O)CCCC4)cc23)n1 (stereo not drawn) [Example 113, 1-(2-(3-(2-amino-5-chloropyrimidin-4-yl)-1-(pyrrolidin-2-ylmethyl)-1H-indol-5-yl)ethynyl)cyclopentanol]
< 1 µM | COCCOCCn1cc(-c2nc(N)ncc2Cl)c2cc(C#CC3(O)CCCC3)ccc21 [Example 124, 1-(2-(3-(2-amino-5-chloropyrimidin-4-yl)-1-(2-(2-methoxyethoxy)ethyl)-1H-indol-5-yl)ethynyl)cyclopentanol]
< 1 µM | COCCn1cc(-c2nc(N)ncc2Cl)c2cc(C#CC3(O)CCCC3)ccc21 [Example 125, 1-(2-(3-(2-amino-5-chloropyrimidin-4-yl)-1-(2-methoxyethyl)-1H-indol-5-yl)ethynyl)cyclopentanol]
< 1 µM | Nc1ncc(Cl)c(-c2cn(CCN3CCOCC3)c3ccc(C#CC4(O)CCCC4)cc23)n1 [Example 126, 1-(2-(3-(2-amino-5-chloropyrimidin-4-yl)-1-(2-morpholinoethyl)-1H-indol-5-yl)ethynyl)cyclopentanol]
< 1 µM | CCN(CC)CCn1cc(-c2nc(N)ncc2Cl)c2cc(C#CC3(O)CCCC3)ccc21 [Example 127, 1-(2-(3-(2-amino-5-chloropyrimidin-4-yl)-1-(2-(diethylamino)ethyl)-1H-indol-5-yl)ethynyl)cyclopentanol]
< 1 µM | Nc1ncc(Cl)c(-c2cn(CC(=O)N3CCOCC3)c3ccc(C#CC4(O)CCCC4)cc23)n1 [Example 128, 2-(3-(2-amino-5-chloropyrimidin-4-yl)-5-(2-(1-hydroxycyclopentyl)ethynyl)-1H-indol-1-yl)-1-morpholinoethanone]
< 1 µM | COCCOCCn1cc(-c2nc(N)ncc2Cl)c2cc(C#CC3(O)CCCCC3)ccc21 [Example 131, 1-(2-(3-(2-amino-5-chloropyrimidin-4-yl)-1-(2-(2-methoxyethoxy)ethyl)-1H-indol-5-yl)ethynyl)cyclohexanol]
< 1 µM | Nc1ncc(Cl)c(-c2cn(CCN3CCOCC3)c3ccc(C#CC4(O)CCCCC4)cc23)n1 [Example 132, 1-(2-(3-(2-amino-5-chloropyrimidin-4-yl)-1-(2-morpholinoethyl)-1H-indol-5-yl)ethynyl)cyclohexanol]
< 1 µM | Nc1ncc(Cl)c(-c2cn(CC3CCOC3)c3ccc(C#CC4(O)CCCC4)cc23)n1 (stereo not drawn) [Example 134, 1-(2-(3-(2-amino-5-chloropyrimidin-4-yl)-1-((tetrahydrofuran-3-yl)methyl)-1H-indol-5-yl)ethynyl)cyclopentanol]
< 1 µM | Nc1ncc(Cl)c(-c2cn(C[C@@H]3CCCO3)c3ccc(C#CC4(O)CCCC4)cc23)n1 [Example 136, 1-(2-(3-(2-amino-5-chloropyrimidin-4-yl)-1-(((S)-tetrahydrofuran-2-yl)methyl)-1H-indol-5-yl)ethynyl)cyclopentanol]
< 1 µM | CN1CCC(n2cc(-c3nc(N)ncc3Cl)c3cc(C#CC4(O)CCCC4)ccc32)C1 (stereo not drawn) [Example 139, 1-(2-(3-(2-amino-5-chloropyrimidin-4-yl)-1-(1-methylpyrrolidin-3-yl)-1H-indol-5-yl)ethynyl)cyclopentanol]

More lines, now with the values behind:

Compound | Ki
CNc1ncc(Cl)c(-c2c[nH]c3ccc(C#CC4(O)CCCC4)cc23)n1 [Example 112, 1-(2-(3-(5-chloro-2-(methylamino)pyrimidin-4-yl)-1H-indol-5-yl)ethynyl)cyclopentanol] | < 1 µM
Nc1ncc(Cl)c(-c2cn(C3CCNC3)c3ccc(C#CC4(O)CCCC4)cc23)n1 (stereo not drawn) [Example 114, 1-(2-(3-(2-amino-5-chloropyrimidin-4-yl)-1-(pyrrolidin-3-yl)-1H-indol-5-yl)ethynyl)cyclopentanol] | < 1 µM
Cn1cc(-c2nc(N)ncc2Cl)c2cc(C#CC(C)(O)c3nccs3)ccc21 (stereo not drawn) [Example 116, 4-(3-(2-amino-5-chloropyrimidin-4-yl)-1-methyl-1H-indol-5-yl)-2-(thiazol-2-yl)but-3-yn-2-ol] | < 1 µM
C[C@@](O)(C#Cc1ccc2[nH]cc(-c3ccncn3)c2c1)c1nccs1 [Example 117, (2R)-4-(3-(pyrimidin-4-yl)-1H-indol-5-yl)-2-(thiazol-2-yl)but-3-yn-2-ol] | < 1 µM
Cn1cc(-c2ccncn2)c2cc(C#CC(C)(O)c3cscn3)ccc21 (stereo not drawn) [Example 118, 4-(1-methyl-3-(pyrimidin-4-yl)-1H-indol-5-yl)-2-(thiazol-4-yl)but-3-yn-2-ol] | < 1 µM
CC(C)C(=O)n1cc(-c2nc(N)ncc2Cl)c2cc(C#CC3(O)CCCC3)ccc21 [Example 119, 1-(3-(2-amino-5-chloropyrimidin-4-yl)-5-(2-(1-hydroxycyclopentyl)ethynyl)-1H-indol-1-yl)-2-methylpropan-1-one] | < 1 µM
CC(=O)n1cc(-c2nc(N)ncc2Cl)c2cc(C#CC3(O)CCCC3)ccc21 [Example 120, 1-(3-(2-amino-5-chloropyrimidin-4-yl)-5-(2-(1-hydroxycyclopentyl)ethynyl)-1H-indol-1-yl)ethanone] | < 1 µM
Nc1ncc(Cl)c(-c2cn(C(=O)C3CC3)c3ccc(C#CC4(O)CCCC4)cc23)n1 [Example 121, (3-(2-amino-5-chloropyrimidin-4-yl)-5-(2-(1-hydroxycyclopentyl)ethynyl)-1H-indol-1-yl)(cyclopropyl)methanone] | < 1 µM
CC(C)(C)C(=O)n1cc(-c2nc(N)ncc2Cl)c2cc(C#CC3(O)CCCC3)ccc21 [Example 122, 1-(3-(2-amino-5-chloropyrimidin-4-yl)-5-(2-(1-hydroxycyclopentyl)ethynyl)-1H-indol-1-yl)-2,2-dimethylpropan-1-one] | < 1 µM
CCN(CC)C(=O)Cn1cc(-c2nc(N)ncc2Cl)c2cc(C#CC3(O)CCCC3)ccc21 [Example 129, 2-(3-(2-amino-5-chloropyrimidin-4-yl)-5-(2-(1-hydroxycyclopentyl)ethynyl)-1H-indol-1-yl)-N,N-diethylacetamide] | < 1 µM
Nc1ncc(Cl)c(-c2cn(CCOCCOCCO)c3ccc(C#CC4(O)CCCC4)cc23)n1 [Example 130] | < 1 µM
COCCOCCn1cc(-c2nc(N)ncc2F)c2cc(C#CC3(O)CCCC3)ccc21 [Example 133, 1-(2-(3-(2-amino-5-fluoropyrimidin-4-yl)-1-(2-(2-methoxyethoxy)ethyl)-1H-indol-5-yl)ethynyl)cyclopentanol] | < 1 µM
Nc1ncc(F)c(-c2cn(CC3CCOC3)c3ccc(C#CC4(O)CCCC4)cc23)n1 (stereo not drawn) [Example 135, 1-(2-(3-(2-amino-5-fluoropyrimidin-4-yl)-1-((tetrahydrofuran-3-yl)methyl)-1H-indol-5-yl)ethynyl)cyclopentanol] | < 1 µM
COc1ccc(C#CC(C)(O)c2nccs2)cc1Nc1nc(N)ncc1Cl (stereo not drawn) [Example 143, 4-(3-((2-amino-5-chloro-4-pyrimidinyl)amino)-4-(methyloxy)phenyl)-2-(1,3-thiazol-2-yl)-3-butyn-2-ol] | < 1 µM
COc1ccc(C#CC(C)(O)c2cc(C)no2)cc1Nc1nc(N)ncc1Cl (stereo not drawn) [Example 144, 4-(3-((2-amino-5-chloro-4-pyrimidinyl)amino)-4-(methyloxy)phenyl)-2-(3-methyl-5-isoxazolyl)-3-butyn-2-ol] | < 1 µM
COc1ccc(C#CC2(O)CCCC2)cc1Nc1nc(N)ncc1Cl [Example 145, 1-((3-((2-amino-5-chloro-4-pyrimidinyl)amino)-4-(methyloxy)-phenyl)ethynyl)-cyclopentanol] | < 1 µM

— patent publication US20110086834A1, “ALKYNYL ALCOHOLS AS KINASE INHIBITORS” (AMGEN INC., priority 2008, published 2011)
